Test results: patent US7060709B2, “Method of treating hepatic fibrosis” (Wyeth, priority 2003, dated 2006)

Tests used:
[1] = stability of CCI-779 in parenteral cosolvent formulation; format: physicochemical; conditions: citric acid at a concentration of less than 0.01% w/v
From the text: In this embodiment, the stability of CCI-779 in parenterally acceptable alcoholic cosolvents is enhanced by addition of an antioxidant to the formulation. Acceptable antioxidants include, but are not limited to, citric acid, d,l-α-tocopherol, BHA, BHT, monothioglycerol, ascorbic acid, propyl gallate, and mixtures thereof. Generally, the parenteral formulations useful in this embodiment of the invention will contain an antioxidant component(s) in a concentration ranging from 0.001% to 1% w/v, or 0.01% to 0.5% w/v, of the cosolvent concentrate, although lower or higher concentrations may be desired. Of the antioxidants, d,l-α-tocopherol is particularly desirable and is used at a concentration of 0.01 to 0.1% w/v with a preferred concentration of 0.075% w/v of the cosolvent concentrate.
Examples of such chelating agents include, e.g., citric acid, acetic acid, and ascorbic acid (which may function as both a classic antioxidant and a chelating agent in the present formulations). Other chelating agents include such materials as are capable of binding metal ions in solution, such as ethylene diamine tetra acetic acid (EDTA), its salts, or amino acids such as glycine are capable of enhancing the stability of CCI-779. […] Optimal concentrations for the selected antioxidant(s) can be readily determined by one of skill in the art, based upon the information provided herein.

[2] = test system: histologically diverse tumor cells; conditions: cited from earlier work
[3] = test system: human tumor xenografts; conditions: nude mice, cited from earlier work
[4] = test system: orthotopic glioma; conditions: nude mice; cited from earlier work
[5] = test system: human glioblastoma cell line; conditions: human glioblastoma cell line in vitro; cited from earlier work

SMILES: CO[C@H]1C[C@@H]2CC[C@@H](C)[C@@](O)(O2)C(=O)C(=O)N2CCCC[C@H]2C(=O)O[C@H]([C@H](C)C[C@@H]2CC[C@@H](OC(=O)C(C)(CO)CO)[C@H](OC)C2)CC(=O)[C@H](C)/C=C(\C)[C@@H](O)[C@@H](OC)C(=O)[C@H](C)C[C@H](C)/C=C/C=C/C=C/1C [CCI-779, Rapamycin 42-ester with 3-hydroxy-2-(hydroxymethyl)-2-methylpropionic acid]
- stability of CCI-779 [1]: enhanced the stability
- cell cycle effect ([2]; in vitro tumor cells): arrested cells in the G1 phase
- growth of tumor cells ([2]; in vitro, CNS cancer, leukemia (T-cell), breast cancer, prostate cancer and melanoma lines among the most sensitive): inhibit the growth
- growth of several human pancreatic tumors and one of two breast cancer lines ([3]; in vivo): inhibited
- activity against human tumor xenografts of diverse histological types ([3]; gliomas particularly sensitive): has activity
- activity in orthotopic glioma model [4]: active
- growth factor (platelet-derived)-induced stimulation [5]: markedly suppressed
